Results published in patent US20250248979A1, “NOVEL GPX4 INHIBITORS AND USES THEREOF” (THE TRUSTEES OF COLUMBIA UNIVERSITY IN THE CITY OF NEW YORK, priority 2022, published 2025).
Like-named read-outs stand apart in the source and are kept apart here.

Tests used:
HT-1080 cells = assay: Cellular dose response assay, HT-1080 with and without Fer-1; type: cell-based, human
Method in brief: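 Viability is measured with CellTiter-Glo after cells plated at 1500 per well the previous day receive a 12-point, 2-fold dilution series for 48 h. DMSO is kept at 0.4% in every well, and HT-1080 is tested both with and without Fer-1.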

HepG2 cells = assay: Cellular dose response assay, HepG2; type: cell-based, human
Method in brief: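 Cells seeded at 1500/well overnight, then treated in triplicate with 12-point 2-fold compound dilutions ± Fer-1 (0.4% DMSO final) for 48 h at 37 °C, 5% CO2. Viability read by CellTiter-Glo luminescence; error bars are SD of three technical replicates from a representative experiment.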

GPX4 = target: T1, GPX4 (Homo sapiens, UniProt P36969); assay: GPX4 activity assay in cell lysates (NADPH-coupled); type: biochemical; design: endogenous in cells; host or cells: A-673 cell lysate; conditions: for GPX4% inhibition at 200 (μM) / GPX4% inhibition at 20 (μM) / GPX4% inhibition at 50 (μM) / GPX4% inhibition at 100 (μM): generation 1
T1 sequence (P36969 1-170 isoform P36969-2): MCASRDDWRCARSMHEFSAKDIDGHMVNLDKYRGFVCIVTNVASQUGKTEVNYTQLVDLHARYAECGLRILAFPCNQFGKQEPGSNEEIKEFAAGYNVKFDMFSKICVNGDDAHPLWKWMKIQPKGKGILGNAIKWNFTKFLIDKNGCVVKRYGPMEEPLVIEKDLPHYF
Method in brief: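 Native GPX4 in lysates of A-673 cells grown with 20 nM sodium selenite; lysate preincubated with compound 45 min at 37 °C in pH 8.0 buffer with 3 mM GSH, 0.5 mM NADPH and glutathione reductase. Reaction started with phosphatidylcholine hydroperoxide; NADPH consumption followed at 340 nm over 25 min; triplicates.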

Huh7 cells = assay: Cellular dose response assay, Huh7; type: cell-based, human; conditions: Table 4
Excerpt: (§1) HT-1080 (human [Homo sapiens] […] fibrosarcoma), A-673 (human [Homo sapiens] […] Ewing's sarcoma), and SK-HEP-1 (human [Homo sapiens] […] hepatic adenocarcinoma), cells were obtained from ATCC. Huh7 (human [Homo sapiens] […] hepatocellular carcinoma), HLF (human [Homo sapiens] […] hepatocellular carcinoma), HepG2 (human [Homo sapiens] […] hepatocellular carcinoma), cells were obtained from the Cancer Cell Bank at Columbia University Irving Medical Center. HT-1080, A-673, Huh-7, and HLF cells were grown in Dulbecco's Modified Eagle Medium (DMEM) supplemented with 10% heat inactivated fetal bovine serum (HI-FBS), 1% non-essential amino acids, and 1% penicillin streptomycin. HepG2 and SK-HEP-1 cells were grown in Eagle's Minimum Essential Medium (EMEM) supplemented with 10% HI-FBS, and 1% penicillin-streptomycin. All cells were cultured at 37° C. and 5% CO2.
(§2) HT-1080, HepG2, Huh7, HLF, and SK-HEP-1 cells were seeded into opaque white 384-well plates at 1500 cells per well then incubated at 37° C. with 5% CO2 overnight. The next day, compounds of interest were dissolved in DMSO and 12-point 2-fold dilution series were prepared with and without Fer-1. Cells were treated in triplicate (final DMSO concentration of 0.4% in all wells, including DMSO-only control wells) and incubated for a further 48 hours at 37° C. and 5% CO2. Cell viability was evaluated using CellTiter-Glo (Promega G7573) and luminescence was recorded on a Victor 5 plate reader. Data were analyzed in GraphPad Prism 9 and error bars represent standard deviation values for three technical replicates in a representative experiment.

HLF cells = assay: Cellular dose response assay, HLF; type: cell-based, human; conditions: Table 4
Excerpt: as §1, §2

SK-HEP-1 cells = assay: Cellular dose response assay, SK-HEP-1; type: cell-based, human; conditions: Table 4
Excerpt: as §1, §2

[1] = compounds alone, Table 4, read-out: IC50 (uM) HT1080^a
[2] = with fer-1, Table 4, read-out: IC50 (uM) HT1080^b
[3] = compounds alone, Table 4, read-out: IC50 (uM) HEPG2^a
[4] = with fer-1, Table 4, read-out: IC50 (uM) HEPG2^b
[5] = compounds alone, read-out: IC50 (uM) Huh7^a
[6] = with fer-1, read-out: IC50 (uM) Huh7^b
[7] = compounds alone, read-out: IC50 (uM) HLF^a
[8] = with fer-1, read-out: IC50 (uM) HLF^b
[9] = compounds alone, read-out: IC50 (uM) SKHEP1^a
[10] = with fer-1, read-out: IC50 (uM) SKHEP1^b

| IC50 (HT-1080 cells; [1]) [µM] | IC50 (HT-1080 cells; [2]) [µM] | IC50 (HepG2 cells; [3]) [µM] | IC50 (HepG2 cells; [4]) [µM] | IC50 (Huh7 cells; [5]) [µM] | IC50 (Huh7 cells; [6]) [µM] | IC50 (HLF cells; [7]) [µM] | IC50 (HLF cells; [8]) [µM] | IC50 (SK-HEP-1 cells; [9]) [µM] | IC50 (SK-HEP-1 cells; [10]) [µM] | GPX4% inhibition at 200 (μM) (GPX4; 200 μM, mean ± s.d., n = 3) [%] | GPX4% inhibition at 20 (μM) (GPX4) [%] | GPX4% inhibition at 50 (μM) (GPX4; 50 μM) [%] | GPX4% inhibition at 100 (μM) (GPX4) [%] | Structure (SMILES) | GPX4 inhibition (GPX4; 200 μM) | further results |
| --- | --- | --- | --- | --- | --- | --- | --- | --- | --- | --- | --- | --- | --- | --- | --- | --- |
| – | – | – | – | – | – | – | – | – | – | – | – | – | – | COc1cccc2[nH]c(C(=O)n3ccnc3)cc12 [LOC1886, reference compound] | – | IC50 (HT-1080 cells; Homo sapiens, HT-1080, compounds alone, read-out: IC50 (μM) HT1080^a): 163 µM; IC50 (HT-1080 cells; Homo sapiens, HT-1080, compounds and fer-1 1.0 μM, read-out: IC50 (μM) HT1080^b): 109 µM; ferroptosis induction / potency in HT-1080 cells, result in words (HT-1080 cells; RSL3 as control): no fer-1 rescue was observed; IC50 (HepG2 cells; Homo sapiens, HepG2, compounds alone, read-out: IC50 (μM) HEPG2^a): 88.6 µM; IC50 (HepG2 cells; Homo sapiens, HepG2, compounds and fer-1 1.0 μM, read-out: IC50 (μM) HEPG2^b): 29.1 µM; inhibition at 200 µM (GPX4; 200 μM, mean ± s.d., n = 3, read-out: GPX4% inhibition at 200): 31.9 ± 6% |
| 34.8 | 37.2 | 69 | 104 | 98.7 | 113 | 98.7 | 113 | 24.1 | 52.8 | −3.3 ± 45.3 | – | – | – | CC(C)(COC(=O)CCl)NC(=O)c1cc2ccccc2[nH]1 [QW-147] | complete loss in potency of inhibitory activity | – |
| 37.7 | 95.9 | > 400 | > 400 | 15.8 | 55 | 16.6 | 28.7 | 10.1 | 121 | 87.3 ± 34.6 | 66.7 ± 1.4 | 79.2 ± 5.8 | 62.7 ± 10.9 | CC(C)(COC(=O)CCl)NC(=O)c1cc2cc([N+](=O)[O-])ccc2[nH]1 [QW-148] | – | – |
| 55.5 | 167 | 81.4 | 291 | 59.6 | 110 | 30 | 278 | 24.7 | 340 | 150.4 ± 20.3 | 27.9 ± 5.5 | 56.0 ± 6.2 | 70.5 ± 9.2 | COc1ccc2cc(C(=O)NC(C)(C)COC(=O)CCl)[nH]c2c1 [QW-152] | complete inhibition | GPX4 inhibition (GPX4; 50 μM): approximately 60% |
